Experimental data as given in US20210213049A1, “METHOD AND MOLECULAR HYDROGEN-CONTAINING COMPOSITION FOR PROMOTION OF POSTOPERATIVE RECOVERY” (MiZ Company Limited, priority 2020, published 2021).

Key:
[1] = stated as known; cited from earlier work
[2] = tested on: person who underwent hip replacement surgery because of coxarthrosis
Description: A person underwent hip replacement surgery because of coxarthrosis (their right leg being […] shorter). The surgery was initiated at 10:00 a.m. on Jul. 10, 2019 and completed around 11 o'clock a.m. on the same day.
Initially, use of crutches for three months was planned as in usual cases, based on the anticipated postoperative course (that is, the patient was expected to use both crutches for the first 1.5 months and one crutch for the subsequent 1.5 months).

[2H][2H] [D2, deuterium]
superoxide eliminating effect compared with H2 [1]: stronger superoxide eliminating effect than that of H2

[HH] [hydrogen, molecular hydrogen]
time after the surgery at which the patient did not need to use crutches ([2]; hydrogen gas approximately 5.0%, approximately 200 mL/min, inhaled three to four hours per day from immediately after surgery, with rehabilitation, crutches for three months had been planned): 13 days | postoperative recovery ([2]; hydrogen inhalation from immediately after hip replacement surgery, approximately 5.0% hydrogen, three to four hours per day, with rehabilitation): achieved early postoperative recovery | discharge from hospital (date) ([2]; surgery on Jul. 10, 2019, hydrogen inhalation from immediately after the surgery): July 20
